Patent publication US20110312898A1, “PROPHYLACTIC / THERAPEUTIC AGENT FOR CANCER” (Takeda Pharmaceutical Company Limited, priority 2008, published 2011)
Square brackets hold non-standard residues; d marks the D form. Arg(Me) = CNC(=N)NCCC[C@H](N)C(=O)O; Hyp = O=C(O)[C@@H]1C[C@@H](O)CN1; azaGly = NNC(=O)O

Columns and labels:
Dunning R3327-G cells = test: Androgen-independent antitumor effects, Dunning R3327-G cells implanted in orchiectomized Copenhagen rats; assay type: in vivo, rat; conditions: 50 nmol/kg/W, subcutaneous ALZET pump; day 52 following the start of dosing; compared with solvent group
From the text: Dunning R3327-G cells, an androgen-sensitive rat prostate cancer cell line, were implanted into orchiectomized Copenhagen rats, and the androgen-independent antitumor effects by Compound No. 550 and Compound No. 723 were investigated.
R3327-G cells (7×10^6) were implanted subcutaneously in 10-week-old orchiectomized male Copenhagen rats. Fifty days after implantation, the rats were divided into groups based on the tumor volume, and were then assigned to a Compound 550—50 nmol/kg/W group, a Compound No. 723—50 nmol/kg/W group, and a solution group (each group consisting of 10 animals). The dose was calculated based on the mean weight of the animals on the day that dosing was begun. Administration was carried out by subcutaneous implantation in the dorsal region using an ALZET pump. The tumor diameter was measured on days 50, 65, 71, 78, 91 and 102 following cell implantation (days 0, 15, 21, 28, 41 and 52 following the start of dosing). The tumor volume (mm^3) was calculated as follows: major axis×minor axis^2÷2. Owing to deaths and the euthanization of animals in the course of the tests, on day 52 following the start of dosing (day 102 after transplantation), only six animals remained in the solution group and only seven animals remained in the Compound No. 723 group.

[1] = tested on: human prostate cancer cell line VCaP; test: Growth-inhibitory activity on VCaP spheroids (CellTiter-Glo); assay type: cell-based; conditions: 10% DCC-FCS
Procedure: Evaluation of the growth-inhibitory activity of the metastin peptide derivative using human prostate cancer cell line VCaP
Regarding Compound No. 723, the inhibitory activity on androgen-independent growth of human prostate cancer cell line VCaP (CRL-2876, American Type Culture Collection) was evaluated. […] in the state of three-dimensional culture (spheroid) was used in the evaluation. Specifically, VCaP cells were suspended in a DMEM medium (Ref. No. 11995, Invitrogen) containing 10% FCS (Cat. No. 171012, Cell Culture Bioscience) to set the concentration to 1.5×10^6 cells/mL. The obtained suspension was spotted on a cover of a tissue culture dish (Ref. No. 353003, FALCON) (20 μL for each) to perform Hanging drop culture (3×10^4 cells/drop). In order to prevent drying, 10 mL of DPBS (Ref. No. 14190, Invitrogen) was added to the culture dish. […]
(§1) Cell growth was quantified 9 days after the start of the treatment with Compound No. 723 by measuring the chemical luminescence evoked by cellular ATP using CellTiter-Glo Luminescent Cell Viability Assay (Promega). Wallac 1420 ARVO MX/Light (Parkin Elmer) was used for the measurement of the luminescence intensity.

[2] = tested on: human prostate cancer cell line 22Rv1; test: Growth-inhibitory activity on 22Rv1 spheroids (CellTiter-Glo); assay type: cell-based; conditions: 10% DCC-FCS
Procedure: Evaluation of the growth-inhibitory activity of the metastin peptide derivative using human prostate cancer cell line 22Rv1
Regarding Compound No. 723, the growth-inhibitory activity on androgen-independent human prostate cancer cell line 22Rv1 (CRL-2505, American Type Culture Collection) was evaluated. […] in the state of three-dimensional culture (spheroid) was used in the evaluation. Specifically, 22Rv1 cells were suspended in a RPMI1640 medium (Ref. No. 22400, Invitrogen) containing 10% FCS (Cat. No. 171012, Cell Culture Bioscience) to set the concentration to 1.5×10^6 cells/mL. The obtained suspension was spotted on a cover of a tissue culture dish (Ref. No. 353003, FALCON) (20 μL for each) to perform Hanging drop culture ([…]). In order to prevent drying, 10 mL of DPBS (Ref. No. 14190, Invitrogen) was added to the culture dish. […]
as §1

DU145 = test: Antitumor activity in DU145 tumor-bearing male rat model; assay type: in vivo; conditions: microcapsule powder s.c. 10, 30 and 60 days after transplantation; No. 550 10 mg/kg, No. 723 1 or 10 mg/kg; 74 days after transplantation; vs surgically castrated group
Procedure: Evaluation of antitumor activity of the metastin peptide derivative in DU145 tumor-bearing male rat model
Antitumor activity of Compound No. 550 and Compound No. 723 against a DU145 tumor-bearing male rat model was evaluated. Specifically, 1×10^6 cells/100 μL suspension of DU145 (androgen-independent cell line, GPR54 highly expressing cell line, ATCC) was mixed with 100 μL of basement membrane matrix: Matrigel (trade name, BD Biosciences), and the obtained mixture was transplanted under the abdominal skin of 7-week-old F344/NJc1-rnu/rnu male rats (CLEA Japan, Inc.) which had been etherized. 10 days after the transplantation, the rats in which the volume of subcutaneous tumor reached 200 mm^3 were divided into 4 groups (Groups A-D, 10 rats for each group). […]
Regarding Group D, the rats were surgically castrated and used as the negative control group. […] 74 days after the transplantation of DU145 cells, the tumor volume (longer diameter×shorter diameter×shorter diameter/2) was measured. […]

## Ac-D-Tyr-Hyp-Asn-Thr-Phe-AzaGly-Leu-Arg(Me)-Trp-NH2 (Ac-[dY][Hyp]NTF[azaGly]L[Arg(Me)]W-NH2) [Compound No. 723]
Dunning R3327-G cells
  antitumor effects (tumor volume): significant antitumor effects
[1]; 1 μM supplied every 12 hours for 8 days, 9 days after start of treatment, cellular ATP, n = 18, Control 564458 ± 27628
  Luminescence intensity: 507191 ± 73146
[1]; 1 μM, vs control
  androgen-independent growth of human prostate cancer cells (VCaP): significantly reduced the androgen-independent growth
[2]; 1 μM supplied every 12 hours for 8 days, 9 days after start of treatment, cellular ATP, n = 18, Control 483469 ± 55917
  Luminescence intensity: 401291 ± 40565
[2]; 1 μM, vs control
  growth of androgen-independent human prostate cancer cells (22Rv1) in the absence of androgen: significantly reduced the growth
DU145
  antitumor effects (tumor volume): antitumor effects more than the surgical castration

## Ac-[dY][dW]NTF[azaGly]L[Arg(Me)]W-NH2 [Compound No. 550]
Dunning R3327-G cells
  antitumor effects (tumor volume): significant antitumor effects
DU145
  antitumor effects (tumor volume): antitumor effects more than the surgical castration
